Measured values reported in patent US9388195B2, “Heterocyclic compound” (Takeda Pharmaceutical Company Limited, priority 2010, dated 2016).
Counter-ions that a name gives are not always drawn.

The molecules below were run against T1, Cdc7/Dbf4 complex (Homo sapiens, UniProt O00311) (assay: Measurement of Cdc7 kinase inhibitory activity (Transcreener ADP HTRF assay)). Settings: read-out: inhibitory rate (%) at 1 μM.
T1 construct: Full-length Cdc7 co-expressed with full-length Dbf4; purchased Carna Biosciences (Kobe)
T1 sequence (O00311 whole entry): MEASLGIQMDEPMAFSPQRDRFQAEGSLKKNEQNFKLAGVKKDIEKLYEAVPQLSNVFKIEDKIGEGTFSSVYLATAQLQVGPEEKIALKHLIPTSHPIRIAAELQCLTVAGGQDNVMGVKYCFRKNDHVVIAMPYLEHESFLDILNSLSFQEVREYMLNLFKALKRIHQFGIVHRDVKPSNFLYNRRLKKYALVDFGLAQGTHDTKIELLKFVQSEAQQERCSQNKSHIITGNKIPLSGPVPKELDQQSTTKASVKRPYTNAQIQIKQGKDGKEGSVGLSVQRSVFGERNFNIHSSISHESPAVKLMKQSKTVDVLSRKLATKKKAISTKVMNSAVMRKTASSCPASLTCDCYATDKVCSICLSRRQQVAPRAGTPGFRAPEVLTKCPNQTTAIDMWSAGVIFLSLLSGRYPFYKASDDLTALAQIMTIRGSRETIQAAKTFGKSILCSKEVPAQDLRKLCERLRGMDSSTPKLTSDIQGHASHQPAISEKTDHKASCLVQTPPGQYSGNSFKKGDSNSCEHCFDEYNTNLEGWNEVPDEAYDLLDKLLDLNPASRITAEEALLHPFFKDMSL
T1 sequence (Q9UBU7 whole entry partner): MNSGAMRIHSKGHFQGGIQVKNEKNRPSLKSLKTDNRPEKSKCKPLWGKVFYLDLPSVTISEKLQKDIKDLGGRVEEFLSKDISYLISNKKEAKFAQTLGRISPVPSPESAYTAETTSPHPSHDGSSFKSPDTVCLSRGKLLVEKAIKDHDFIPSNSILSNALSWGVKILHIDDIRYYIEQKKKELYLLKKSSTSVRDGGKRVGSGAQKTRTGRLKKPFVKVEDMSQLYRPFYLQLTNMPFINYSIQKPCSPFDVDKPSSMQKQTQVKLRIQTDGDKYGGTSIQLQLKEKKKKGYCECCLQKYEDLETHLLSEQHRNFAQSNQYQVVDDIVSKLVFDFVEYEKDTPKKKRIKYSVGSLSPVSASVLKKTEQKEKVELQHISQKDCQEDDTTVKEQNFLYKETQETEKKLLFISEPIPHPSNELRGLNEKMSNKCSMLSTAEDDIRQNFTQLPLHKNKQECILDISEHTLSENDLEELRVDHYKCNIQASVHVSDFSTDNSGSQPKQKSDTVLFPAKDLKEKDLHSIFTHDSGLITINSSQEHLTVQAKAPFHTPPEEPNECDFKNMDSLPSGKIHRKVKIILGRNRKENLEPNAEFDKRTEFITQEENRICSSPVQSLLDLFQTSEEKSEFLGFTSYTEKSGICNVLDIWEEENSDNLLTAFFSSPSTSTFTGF
Format: biochemical
Description: Full-length Cdc7 co-expressed with full-length Dbf4 was purchased from Carna Biosciences (Kobe). The enzyme activity of Cdc7/Dbf4 complex was detected by homogeneous time-resolved fluorescence method Transcreener ADP assay (Cisbio Inc., MA, U.S.A.). […] Free ADP produced by ATP hydrolysis was detected by Eu^3+-Cryptate-labeled anti-ADP monoclonal antibody competitively with d2-labeled ADP, and the production amount thereof was measured. The obtained time-resolved fluorescence resonance energy transfer signal was measured by EnVision (Perkin Elmer Inc., MA, U.S.A.). The inhibitory rate (%) of the test compound to Cdc7 was calculated by the following formula. Inhibitory rate(%)=(1−(count of test compound-blank)[…](control-blank))×100
The count of the Cdc7/Dbf4 reaction mixture under compound-free conditions was taken as the control, and that under compound-free and Cdc7/Dbf4-free conditions was taken as the blank.

Point of comparison: Cc1[nH]ncc1-c1cc2nc([C@H]3NCC[C@@H]3C)[nH]c(=O)c2s1 [Example 140, 6-(5-methyl-1H-pyrazol-4-yl)-2-[(2S,3S)-3-methylpyrrolidin-2-yl]thieno[3,2-d]pyrimidin-4 (3H)-one dihydrochloride], inhibition at 1 µM 100%. Against it:
- Cc1[nH]ncc1-c1cc2nc([C@@H]3CCN3)[nH]c(=O)c2s1 [Example 77, 2-[(2S)-azetidin-2-yl]-6-(5-methyl-1H-pyrazol-4-yl)thieno[3,2-d]pyrimidin-4 (3H)-one] — higher, 108%
- Cc1[nH]ncc1-c1cc2nc([C@@H]3CCC(C)(C)N3)[nH]c(=O)c2s1 [Example 76, 2-[(2S)-5,5-dimethylpyrrolidin-2-yl]-6-(5-methyl-1H-pyrazol-4-yl)thieno[3,2-d]pyrimidin-4 (3H)-one] — higher, 106%
- Cc1[nH]ncc1-c1cc2nc([C@@H]3C[C@H](C)CN3)[nH]c(=O)c2s1 [Example 92, 6-(5-methyl-1H-pyrazol-4-yl)-2-[(2S,4S)-4-methylpyrrolidin-2-yl]thieno[3,2-d]pyrimidin-4 (3H)-one dihydrochloride] — higher, 108%
- Cc1[nH]ncc1-c1cc2nc(C3CCCCCN3)[nH]c(=O)c2s1 (stereo not shown) [Example 79, 2-(azepan-2-yl)-6-(5-methyl-1H-pyrazol-4-yl)thieno[3,2-d]pyrimidin-4 (3H)-one] — lower, 93.3%
- Cc1[nH]ncc1-c1cc2nc(C34CC(CN3)C4)[nH]c(=O)c2s1 [Example 148, 2-(2-azabicyclo[2.1.1]hex-1-yl)-6-(5-methyl-1H-pyrazol-4-yl)thieno[3,2-d]pyrimidin-4 (3H)-one hydrochloride] — higher, 102%
- Cc1[nH]ncc1-c1cc2nc([C@@H]3CCCCCN3)[nH]c(=O)c2s1 [Example 102, 2-[(2S)-azepan-2-yl]-6-(5-methyl-1H-pyrazol-4-yl)thieno[3,2-d]pyrimidin-4 (3H)-one] — lower, 95.9%
- Cc1[nH]ncc1-c1cc2nc([C@@H]3CCCN3C)[nH]c(=O)c2s1 [Example 88, 6-(5-methyl-1H-pyrazol-4-yl)-2-[(2S)-1-methylpyrrolidin-2-yl]thieno[3,2-d]pyrimidin-4 (3H)-one dihydrochloride] — higher, 101%

Same assay, conditions: read-out: inhibitory rate (%) at 1 μM, test compound 1 μM; Cdc7/Dbf4, 1.0 μm ATP, 10 μg/ml MCM2

Point of comparison: Cc1[nH]ncc1-c1cc2nc(C3CCCCN3)[nH]c(=O)c2s1 (stereo not shown) [Example 71, 6-(5-methyl-1H-pyrazol-4-yl)-2-(piperidin-2-yl)thieno[3,2-d]pyrimidin-4 (3H)-one dihydrochloride], inhibition at 1 µM 109%. Against it:
- Cc1[nH]ncc1-c1cc2nc(C3CC=CCN3)[nH]c(=O)c2s1 (stereo not shown) [Example 136, 6-(5-methyl-1H-pyrazol-4-yl)-2-(1,2,3,6-tetrahydropyridin-2-yl)thieno[3,2-d]pyrimidin-4 (3H)-one dihydrochloride] — lower, 91%
- Cc1[nH]ncc1-c1cc2nc([C@H]3CC=CCN3)[nH]c(=O)c2s1 [Example 146, 6-(5-methyl-1H-pyrazol-4-yl)-2-[(2R)-1,2,3,6-tetrahydropyridin-2-yl]thieno[3,2-d]pyrimidin-4 (3H)-one dihydrochloride] — lower, 108%
- Cc1[nH]ncc1-c1cc2nc(C3(C)CCCN3)[nH]c(=O)c2s1 (stereo not shown) [Example 82, 6-(5-methyl-1H-pyrazol-4-yl)-2-(2-methylpyrrolidin-2-yl)thieno[3,2-d]pyrimidin-4 (3H)-one dihydrochloride] — lower, 105%

Same assay, conditions: test compound 1 μM; Cdc7/Dbf4, 1.0 μm ATP, 10 μg/ml MCM2; hydrochloride, 1 µM

For Cc1[nH]ncc1-c1cc2nc([C@@H]3CCCCN3)[nH]c(=O)c2s1 [Example 172, 6-(5-methyl-1H-pyrazol-4-yl)-2-[(2S)-piperidin-2-yl]thieno[3,2-d]pyrimidin-4 (3H)-one hydrochloride], the “inhibitory rate (%) at 1 μM” value was 102%.

Same assay, conditions: test compound 1 μM; Cdc7/Dbf4, 1.0 μm ATP, 10 μg/ml MCM2; read-out: inhibitory rate (%) at 1 μM

Point of comparison: O=c1[nH]c(C23CC(CN2)C3)nc2cc(-c3cn[nH]c3C(F)(F)F)sc12 [Example 165, 2-(2-azabicyclo[2.1.1]hex-1-yl)-6-[5-(trifluoromethyl)-1H-pyrazol-4-yl]thieno[3,2-d]pyrimidin-4 (3H)-one dihydrochloride], inhibition at 1 µM 105%. Against it:
- Cc1[nH]ncc1-c1cc2nc([C@H]3CC4CCN3CC4)[nH]c(=O)c2s1 [Example 164, 2-[(2R)-1-azabicyclo[2.2.2]oct-2-yl]-6-(5-methyl-1H-pyrazol-4-yl)thieno[3,2-d]pyrimidin-4 (3H)-one trifluoroacetate] — lower, 101%
- Cc1[nH]ncc1-c1cc2nc([C@H]3NC[C@H]4C[C@H]43)[nH]c(=O)c2s1 (relative stereo) [Example 87, 2-[(1R*,2S*,5S*)-3-azabicyclo[3.1.0]hex-2-yl]-6-(5-methyl-1H-pyrazol-4-yl)thieno[3,2-d]pyrimidin-4 (3H)-one dihydrochloride] — higher, 107%
- Cc1[nH]ncc1-c1cc2nc([C@]34C[C@H]3CCN4)[nH]c(=O)c2s1 [Example 157, 2-[(1S,5R)-2-azabicyclo[3.1.0]hex-1-yl]-6-(5-methyl-1H-pyrazol-4-yl)thieno[3,2-d]pyrimidin-4 (3H)-one dihydrochloride] — lower, 92%
- Cc1[nH]ncc1-c1cc2nc(-c3ccccc3Cl)[nH]c(=O)c2s1 [Example 1, 2-(2-chlorophenyl)-6-(5-methyl-1H-pyrazol-4-yl)thieno[3,2-d]pyrimidin-4 (3H)-one] — lower, 97%
- Cc1[nH]ncc1-c1cc2nc([C@@H]3NC[C@@H]4C[C@@H]43)[nH]c(=O)c2s1 [Example 112, 2-[(1S,2R,5R)-3-azabicyclo[3.1.0]hex-2-yl]-6-(5-methyl-1H-pyrazol-4-yl)thieno[3,2-d]pyrimidin-4 (3H)-one dihydrochloride] — the same, 105%
- Cc1[nH]ncc1-c1cc2nc(C3CCCC3N)[nH]c(=O)c2s1 (single isomer, unassigned) [Example 137, 2-(2-aminocyclopentyl)-6-(5-methyl-1H-pyrazol-4-yl)thieno[3,2-d]pyrimidin-4 (3H)-one dihydrochloride] — lower, 97%
- CNCc1nc2cc(-c3cn[nH]c3C)sc2c(=O)[nH]1 [Example 133, 2-[(methylamino)methyl]-6-(5-methyl-1H-pyrazol-4-yl)thieno[3,2-d]pyrimidin-4 (3H)-one dihydrochloride] — higher, 107%
- Cc1[nH]ncc1-c1cc2nc([C@H]3NC4CCC3CC4)[nH]c(=O)c2s1 [Example 108, 2-[(3S)-2-azabicyclo[2.2.2]oct-3-yl]-6-(5-methyl-1H-pyrazol-4-yl)thieno[3,2-d]pyrimidin-4 (3H)-one dihydrochloride] — lower, 103%
- Cc1[nH]ncc1-c1cc2nc([C@@H]3C[C@@H](F)CN3)[nH]c(=O)c2s1 [Example 23, 2-[(2S,4R)-4-fluoropyrrolidin-2-yl]-6-(5-methyl-1H-pyrazol-4-yl)thieno[3,2-d]pyrimidin-4 (3H)-one dihydrochloride] — lower, 98.4%
- Cc1[nH]ncc1-c1cc2nc(CN3CC=CCC3)[nH]c(=O)c2s1 [Example 75, 2-(3,6-dihydropyridin-1(2H)-ylmethyl)-6-(5-methyl-1H-pyrazol-4-yl)thieno[3,2-d]pyrimidin-4 (3H)-one] — higher, 107%
- Cc1[nH]ncc1-c1cc2nc(C3CCCC3N)[nH]c(=O)c2s1 (stereo not shown) [Example 139, 2-(2-aminocyclopentyl)-6-(5-methyl-1H-pyrazol-4-yl)thieno[3,2-d]pyrimidin-4 (3H)-one dihydrochloride] — higher, 106%
- Cc1[nH]ncc1-c1cc2nc([C@H]3NC[C@H]4C[C@H]43)[nH]c(=O)c2s1 [Example 113, 2-[(1R,2S,5S)-3-azabicyclo[3.1.0]hex-2-yl]-6-(5-methyl-1H-pyrazol-4-yl)thieno[3,2-d]pyrimidin-4 (3H)-one dihydrochloride] — higher, 124%
- Cc1[nH]ncc1-c1cc2nc(C3COCCN3)[nH]c(=O)c2s1 (stereo not shown) [Example 72, 6-(5-methyl-1H-pyrazol-4-yl)-2-(morpholin-3-yl)thieno[3,2-d]pyrimidin-4 (3H)-one dihydrochloride] — lower, 102%
- Cc1[nH]ncc1-c1cc2nc([C@H]3CCCC[C@@H]3N)[nH]c(=O)c2s1 (relative stereo) [Example 129, 2-[(1R*,2R*)-2-aminocyclohexyl]-6-(5-methyl-1H-pyrazol-4-yl)thieno[3,2-d]pyrimidin-4 (3H)-one dihydrochloride] — higher, 108%
- Cc1[nH]ncc1-c1cc2nc([C@@H]3C[C@@H]4CCCC[C@@H]4N3)[nH]c(=O)c2s1 [Example 78, 6-(5-methyl-1H-pyrazol-4-yl)-2-[(2S,3aS,7aS)-octahydro-1H-indol-2-yl]thieno[3,2-d]pyrimidin-4 (3H)-one] — lower, 86.2%
- O=c1[nH]c(CN2CCCC2)nc2cc(-c3cn[nH]c3C(F)(F)F)sc12 [Example 143, 2-(pyrrolidin-1-ylmethyl)-6-[5-(trifluoromethyl)-1H-pyrazol-4-yl]thieno[3,2-d]pyrimidin-4 (3H)-one] — higher, 122%
- Cc1[nH]ncc1-c1cc2nc([C@H]3NC[C@@H]4C[C@@H]43)[nH]c(=O)c2s1 (relative stereo) [Example 110, 2-[(1S*,2S*,5R*)-3-azabicyclo[3.1.0]hex-2-yl]-6-(5-methyl-1H-pyrazol-4-yl)thieno[3,2-d]pyrimidin-4 (3H)-one dihydrochloride] — lower, 100%
